Measured values: US20140135310A1, “SULPHONAMIDE DERIVATIVES OF ALICYCLIC AMINES FOR THE TREATMENT OF CENTRAL NERVOUS SYSTEM DISEASES” (Adamed Sp. z o.o., priority 2011, published 2014)

Key:
[1] = biological target: T1, 5-HT1A receptor (rat hippocampus) (Rattus norvegicus, UniProt P19327); assay: Radioligand binding assay, serotoninergic 5-HT1A receptors; conditions: binding assay result in %, Table 5a;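 further: test compound at 1 µM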
T1 construct: hippocampus; from tissue; host or cells: rat hippocampus
T1 sequence (P19327 1-422): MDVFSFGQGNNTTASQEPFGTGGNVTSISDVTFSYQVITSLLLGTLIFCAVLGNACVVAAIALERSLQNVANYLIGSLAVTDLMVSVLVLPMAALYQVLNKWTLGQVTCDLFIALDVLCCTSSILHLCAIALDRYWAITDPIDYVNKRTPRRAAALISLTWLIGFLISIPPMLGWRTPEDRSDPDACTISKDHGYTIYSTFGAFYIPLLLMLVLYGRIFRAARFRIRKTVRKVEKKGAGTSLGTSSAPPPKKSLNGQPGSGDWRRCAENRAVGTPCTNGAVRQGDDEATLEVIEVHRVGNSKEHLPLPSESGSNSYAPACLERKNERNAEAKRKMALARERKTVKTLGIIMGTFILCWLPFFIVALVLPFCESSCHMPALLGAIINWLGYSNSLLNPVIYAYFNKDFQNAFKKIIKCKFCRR

σ receptors = assay: Radioligand binding assay, σ receptors; conditions: rat cerebral cortex, [3H]DTG 8 nM
Summary of the method: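 Values derive from radioligand displacement, with non-specific binding defined by excess cold ligand and detection by scintillation. Hill-fit IC50s were converted to Ki via Cheng-Prusoff using Scatchard-derived Kd; percent inhibition of control specific binding also reported.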

5-HT2C receptor = biological target: T2, 5-HT2C receptor (Homo sapiens, UniProt P28335); assay: Radioligand binding assay, serotoninergic 5-HT2C receptors; conditions: test compound 1×10^−6 M
T2 construct: expressed in transfected cells; host or cells: HEK-293 cells
T2 sequence (P28335 33-458): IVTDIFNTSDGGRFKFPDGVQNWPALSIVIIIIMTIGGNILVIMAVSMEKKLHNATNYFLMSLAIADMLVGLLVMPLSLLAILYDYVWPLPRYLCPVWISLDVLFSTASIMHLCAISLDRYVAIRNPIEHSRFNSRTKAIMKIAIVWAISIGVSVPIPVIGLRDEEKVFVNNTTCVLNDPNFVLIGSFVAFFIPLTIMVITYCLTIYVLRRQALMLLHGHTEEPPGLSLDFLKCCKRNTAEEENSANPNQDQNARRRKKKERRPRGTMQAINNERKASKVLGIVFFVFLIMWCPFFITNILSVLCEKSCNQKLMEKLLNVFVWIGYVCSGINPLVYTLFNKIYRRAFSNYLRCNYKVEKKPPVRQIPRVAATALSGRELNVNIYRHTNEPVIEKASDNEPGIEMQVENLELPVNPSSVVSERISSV

5-HT7 receptor = biological target: T3, 5-HT7 receptor (Homo sapiens, UniProt P34969); assay: Radioligand binding assay, serotoninergic 5-HT7 receptors; conditions: binding assay result in %, Table 5a;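 further: test compound at 1 µM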
T3 construct: purchased PerkinElmer
Summary of the method: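 Ki values used the Cheng–Prusoff equation, with KD from Scatchard analysis, applied to IC50 from Hill fits of human 5-HT7 radioligand competition curves. Bound radioligand was counted by scintillation, and excess unlabelled ligand set the non-specific binding.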

α2C adrenergic receptors = biological target: T4, α2C adrenergic receptors (Homo sapiens, UniProt P18825); assay: Radioligand binding assay, adrenergic α2C receptors; conditions: test compound 1×10^−6 M
T4 construct: expressed in transfected cells; host or cells: CHO cells
T4 sequence (P18825 1-462): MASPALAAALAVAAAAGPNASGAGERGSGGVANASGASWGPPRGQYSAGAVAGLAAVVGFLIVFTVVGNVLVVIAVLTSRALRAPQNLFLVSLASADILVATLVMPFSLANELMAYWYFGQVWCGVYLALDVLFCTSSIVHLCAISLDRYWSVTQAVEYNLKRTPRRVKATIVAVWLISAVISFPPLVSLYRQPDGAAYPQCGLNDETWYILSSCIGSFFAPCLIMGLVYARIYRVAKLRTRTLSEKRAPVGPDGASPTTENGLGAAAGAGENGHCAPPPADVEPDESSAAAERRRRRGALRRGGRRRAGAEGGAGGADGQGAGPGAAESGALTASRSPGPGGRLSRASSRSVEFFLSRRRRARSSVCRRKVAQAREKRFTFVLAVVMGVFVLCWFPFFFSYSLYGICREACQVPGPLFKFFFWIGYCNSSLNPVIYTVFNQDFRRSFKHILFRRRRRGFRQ
Summary of the method: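 Competitive radioligand binding at human α2C receptors, with scintillation counting. Nonspecific binding defined with excess unlabelled ligand; results given as % inhibition of control specific binding. IC50 from Hill-equation fits of competition curves; Ki via Cheng-Prusoff using radioligand concentration and Scatchard-derived KD.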

T3 sequence (P34969 whole entry): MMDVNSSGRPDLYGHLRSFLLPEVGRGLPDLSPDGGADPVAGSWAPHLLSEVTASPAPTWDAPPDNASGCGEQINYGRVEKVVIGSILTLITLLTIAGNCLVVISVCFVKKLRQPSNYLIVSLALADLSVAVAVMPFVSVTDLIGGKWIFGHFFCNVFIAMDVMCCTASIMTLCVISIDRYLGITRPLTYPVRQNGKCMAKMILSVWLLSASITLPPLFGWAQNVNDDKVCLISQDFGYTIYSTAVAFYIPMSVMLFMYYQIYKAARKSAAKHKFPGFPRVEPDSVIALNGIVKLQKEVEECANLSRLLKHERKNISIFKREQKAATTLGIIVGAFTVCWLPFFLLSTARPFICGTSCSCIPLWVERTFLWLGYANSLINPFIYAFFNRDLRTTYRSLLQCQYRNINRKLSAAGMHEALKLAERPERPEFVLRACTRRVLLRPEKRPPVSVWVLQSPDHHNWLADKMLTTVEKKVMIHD

Compound: O=S(=O)(N[C@@H]1CCN(CCCc2noc3cc(F)ccc23)C1)c1cc2ccccc2o1 [Compound 214, N-[(3R)-1-[3-(6-Fluoro-1,2-benzoxazol-3-yl)propyl]pyrrolidin-3-yl]benzo-furan-2-sulphonamide]
- inhibition at 1 µM [1]: 34%
- σ [%] (σ receptors): 84%
- inhibition at 1 µM (5-HT2C receptor): 65%
- inhibition at 1 µM (5-HT7 receptor): 98%
- inhibition at 1 µM (α2C adrenergic receptors): 74%

Compound: O=S(=O)(NC1CCN(CCCc2noc3cc(F)ccc23)CC1)c1cccc2ccccc12 [Compound 34, N-[1-[3-(6-Fluoro-1,2-benzoxazol-3-yl)propyl]-4-piperidine]-naphthalene-1-sulphonamide]
- inhibition at 1 µM [1]: 32%
- σ [%] (σ receptors): 50%
- inhibition at 1 µM (5-HT2C receptor): 94%
- inhibition at 1 µM (5-HT7 receptor): 100%
- inhibition at 1 µM (α2C adrenergic receptors): 94%

Compound: O=S(=O)(N[C@@H]1CCN(CCCc2noc3cc(F)ccc23)C1)c1cc2ccc(Cl)cc2s1 [Compound 198, 6-Chloro-N-[(3R)-1-[3-(6-fluoro-1,2-benzoxazol-3-yl)propyl]pyrrolidin-3-yl]benzothiophene-2-sulphonamide]
- inhibition at 1 µM [1]: 45%
- σ [%] (σ receptors): 86%
- inhibition at 1 µM (5-HT2C receptor): 86%
- inhibition at 1 µM (5-HT7 receptor): 93%
- inhibition at 1 µM (α2C adrenergic receptors): 80%

Compound: O=S(=O)(NC1CN(CCOc2cccc3c2OCCO3)C1)c1ccc(Cl)cc1 [Compound 92, 4-Chloro-N-[1-[2-(2,3-dihydro-1,4-benzodioxan-8-yloxy)ethyl]azetidin-3-yl]benzene-sulphonamide]
- 5-HT1A [%] [1]: 100%
- σ [%] (σ receptors): 15%
- 5-HT2C [%] (5-HT2C receptor): 52%
- 5-HT7 [%] (5-HT7 receptor): 99%
- α2C [%] (α2C adrenergic receptors): 76%

Compound: O=S(=O)(NC1CCN(CCCc2c[nH]c3ccc(F)cc23)C1)c1ccc(Cl)cc1 (stereo not drawn) [Compound 77, 4-Chloro-N-[1-[3-(5-fluoro-1H-indol-3-yl)propyl]pyrrolidin-3-yl]-benzenesulphonamide]
- inhibition at 1 µM [1]: 99%
- σ [%] (σ receptors): 48%
- inhibition at 1 µM (5-HT2C receptor): 77%
- inhibition at 1 µM (5-HT7 receptor): 89%
- inhibition at 1 µM (α2C adrenergic receptors): 78%

Compound: O=S(=O)(NC1CCN(CCCc2noc3cc(F)ccc23)C1)c1csc2ccccc12 (stereo not drawn) [Compound 26, N-[1-[3-(6-Fluoro-1,2-benzoxazol-3-yl)propyl]pyrrolidin-3-yl]-benzothiophene-3-sulphonamide]
- inhibition at 1 µM [1]: 79%
- σ [%] (σ receptors): 80%
- inhibition at 1 µM (5-HT2C receptor): 51%
- inhibition at 1 µM (5-HT7 receptor): 97%
- inhibition at 1 µM (α2C adrenergic receptors): 76%

Compound: O=S(=O)(NC1CN(CCOc2cccc3[nH]ccc23)C1)c1ccc(F)cc1 [Compound 46, 4-Fluoro-N-[1-[2-(1H-indol-4-yloxy)ethyl]azetidin-3-yl]benzene-sulphonamide]
- inhibition at 1 µM [1]: 101%
- σ [%] (σ receptors): 15%
- inhibition at 1 µM (5-HT2C receptor): 21%
- inhibition at 1 µM (5-HT7 receptor): 100%
- inhibition at 1 µM (α2C adrenergic receptors): 101%

Compound: O=S(=O)(NC1CN(CCOc2cccc3c2OCCO3)C1)c1cccc2ccccc12 [Compound 94, N-[1-[2-(2,3-Dihydro-1,4-benzodioxan-8-yloxy)ethyl]azetidin-3-yl]-naphthalene-1-sulphonamide]
- 5-HT1A [%] [1]: 98%
- σ [%] (σ receptors): 71%
- 5-HT2C [%] (5-HT2C receptor): 91%
- 5-HT7 [%] (5-HT7 receptor): 100%
- α2C [%] (α2C adrenergic receptors): 106%

Compound: O=S(=O)(NC1CN(CCOc2cccc3[nH]ccc23)C1)c1ccc2ccccc2c1 [Compound 50, N-[1-[2-(1H-Indol-4-yloxy)ethyl]azetidin-3-yl]naphthalene-2-sulphonamide]
- inhibition at 1 µM [1]: 101%
- σ [%] (σ receptors): 59%
- inhibition at 1 µM (5-HT2C receptor): 54%
- inhibition at 1 µM (5-HT7 receptor): 99%
- inhibition at 1 µM (α2C adrenergic receptors): 108%
